From US20250228834A1, “PHARMACEUTICAL COMPOSITION FOR THE TREATMENT OF COLON AND LUNG CANCER” (HEPAREGENIX GMBH, priority 2022, published 2025)

Key:
Type in all cases: cell-based
[1] = test system: Lung Cancer Cells; assay: IncuCyte proliferation assay (Assay Method C), confluence
Method: (§1) All cell lines were cultured in RPMI 1640 medium (Gibco) supplemented with 10% fetal bovine serum, 1% glutamine and penicillin-streptomycin (Gibco) at 37° C. and 5% CO2. Mycoplasma contamination was excluded via a PCR-based method.
Drugs were refreshed twice a week.

[2] = test system: KRAS G12C mutant cancer cell line H358; assay: Colony formation matrix (Assay Method A), Example 4; conditions: compound (A) combined with RMC4550, 10 days, FIG. 4
Method: (§2) • KRAS mutant lung and colorectal cancer cells: • Lung: H358 (G12C) (ATCC No: CRL-5807) • H2122 (G12C) (ATCC No: CRL-5985) • Colon:DLD1 (G13D) (ATCC No: CCL-221) • HCT 116 (G13D) (ATCC No: CCL-247)
as §1
(§3) Cell lines were cultured and seeded into 24-well plates. After 24 h incubation, drugs were added using the HP D300 Digital Dispenser. Medium and drugs were refreshed twice a week for 10-14 days. After this, cells were fixed with 4% formaldehyde in PBS and stained with 0.1% crystal violet in water. The quantification of the colony formation matrixes (crystal violet staining per well) was assessed using ImageJ software.
According to Assay Method A H358 cells were treated with compound (A), RMC4550 or their combination at the indicated concentrations (cf. FIG. 4). Drugs were refreshed twice a week. The cells were fixed and stained after 10 days.

[3] = test system: Lung Cancer Cells; assay: IncuCyte Caspase 3/7 apoptosis assay (Assay Method C); conditions: compound (A) in combination with Trametinib, RMC4550 or AMG510; first 72 hours; FIG. 5B
Method: as §1
For IncuCyte proliferation assays and Caspase 3/7 assays, cells were seeded in 96-well plates. After 24 h incubation, drugs and the IncuCyte® Caspase-3/7 green apoptosis assays reagent (Essen Bioscience 4440) were added using the HP D300 Digital Dispenser and the plates were placed in the IncuCyte®. Culture media and drugs were refreshed twice a week for 10 days. Cells were imaged every 4 hours in the IncuCyte ZOOM (Essen Bioscience). Phase-contrast images were collected and analyzed to detect cell proliferation based on cell confluence. Apoptosis was measured based on green fluorescent staining of apoptotic cells using the IncuCyte® Caspase-3/7 green apoptosis assay reagent (Essen Bioscience 4440).
According to assay method C cells were treated with compound (A) as component a) and RMC4550, AMG510, or Trametinib as component b) or combinations of component a) and either one of component b) at the indicated concentrations. Additionally, during the first treatment, the IncuCyte® Caspase-3/7 green apoptosis assay reagent was added to measure apoptosis for the first 72 hours. […] Confluence (left) and Caspase 3/7 activity was measured by the IncuCyte®. […]

[4] = test system: KRASG12C mutant lung cancer cells (H358, H2122); assay: Colony formation matrix (Assay Method A), Example 3; conditions: 10 days, FIG. 3
Method: as §2, §1, §3
According to Assay Method A cells (H358, H2122) were treated with compound (A), AMG510 or their combination at the indicated concentrations (cf. FIG. 3). Drugs were refreshed twice a week. The cells were fixed and stained after 10 days.

[5] = test system: KRAS mutant lung and colorectal cancer cells (H358, H2122, DLD1, HCT 116); assay: Colony formation matrix (Assay Method A)
Method: as §2, §1, §3
According to Assay Method A cells (H358, H2122, DLD1, HCT 116) were treated with compound (A), Trametinib or their combination at the indicated concentrations (cf. FIG. 1). Drugs were refreshed twice a week. The cells were fixed and stained after 10 days.
According to Assay Method A cells (H358, DLD1, HCT 116) were treated with compound (A), SCH772984 or their combination at the indicated concentrations (cf. FIG. 2). Drugs were refreshed twice a week. The cells were fixed and stained after 10 days.

Which “cell proliferation (confluence)” value ([1]; compound (A) in combination with Trametinib, RMC4550 or AMG510, FIG. 5A) does the source give for `CCCS(=O)(=O)Nc1c(F)ccc(C(=O)c2c[nH]c3ncc(-c4cnc(C5CC5)nc4)cc23)c1F` [compound (A), N-(3-(5-(2-cyclopropyl-pyrimidin-5-yl)-1H-pyrrolo[2,3-b]pyridine-3-carbonyl)-2,6-difluorophenyl)-propane-1-sulfonamide] here?
The value was “Abrogates Cell Proliferations”.

And the “synergistic effect of combination (confluence and Caspase 3/7 activity)” value ([1]; compound (A) with MEK, SHP2 and KRASG12C inhibitors, example 5, FIGS. 5A and 5B)?
The value was “synergistic effect”.

What about the “synergy with SHP2 inhibition in colony formation matrix” value [2] of the same compound?
The value was “Synergizes”.

What about the “apoptosis (Caspase 3/7 activity)” value [3] of the same compound?
The value was “Induces Apoptosis”.

What about the “toxicity compared to the single agent effect of AMG510” value ([4]; addition of compound (A) to AMG510, KRAS G12C mutants H358, H2122) of the same compound?
The value was “strongly increased the toxicity”.

What about the “synergy with AMG510 in colony formation matrix” value ([4]; compound (A) combined with AMG510, H358, H2122) of the same compound?
The value was “strong synergy”.

And the “synergy with MEK, ERK, KRAS and SHP2 inhibition, overall conclusion” value ([5]; compound (A) combined with MEK, ERK, KRAS or SHP2 inhibitor, all obtained results)?
The value was “strongly synergizes”.

What about the “synergy with ERK inhibition in colony formation matrix” value ([5]; compound (A) combined with SCH772984, H358, DLD1, HCT 116, 10 days, FIG. 2) of the same compound?
The value was “Synergizes”.

And the “toxicity in colony formation matrix, single drug” value ([5]; single drug, KRAS mutant cancer cells (H358, H2122, DLD1, HCT 116), fixed and stained after 10 days, FIG. 1)?
The value was “did not show sensitivity”.
